Assay results taken from publication PMC5290997 (Bioconjugate chemistry, 2016).

Legend:
PSMA = PSMA (Homo sapiens, UniProt Q04609); assay: PSMA inhibition assay; assay type: biochemical; conditions: LNCaP cell lysates, 4 µM NAAG, Cheng-Prusoff conversion
[1] = chelating agent for ^68Ga; cited from earlier work

PSMA, sequence (Q04609 whole entry): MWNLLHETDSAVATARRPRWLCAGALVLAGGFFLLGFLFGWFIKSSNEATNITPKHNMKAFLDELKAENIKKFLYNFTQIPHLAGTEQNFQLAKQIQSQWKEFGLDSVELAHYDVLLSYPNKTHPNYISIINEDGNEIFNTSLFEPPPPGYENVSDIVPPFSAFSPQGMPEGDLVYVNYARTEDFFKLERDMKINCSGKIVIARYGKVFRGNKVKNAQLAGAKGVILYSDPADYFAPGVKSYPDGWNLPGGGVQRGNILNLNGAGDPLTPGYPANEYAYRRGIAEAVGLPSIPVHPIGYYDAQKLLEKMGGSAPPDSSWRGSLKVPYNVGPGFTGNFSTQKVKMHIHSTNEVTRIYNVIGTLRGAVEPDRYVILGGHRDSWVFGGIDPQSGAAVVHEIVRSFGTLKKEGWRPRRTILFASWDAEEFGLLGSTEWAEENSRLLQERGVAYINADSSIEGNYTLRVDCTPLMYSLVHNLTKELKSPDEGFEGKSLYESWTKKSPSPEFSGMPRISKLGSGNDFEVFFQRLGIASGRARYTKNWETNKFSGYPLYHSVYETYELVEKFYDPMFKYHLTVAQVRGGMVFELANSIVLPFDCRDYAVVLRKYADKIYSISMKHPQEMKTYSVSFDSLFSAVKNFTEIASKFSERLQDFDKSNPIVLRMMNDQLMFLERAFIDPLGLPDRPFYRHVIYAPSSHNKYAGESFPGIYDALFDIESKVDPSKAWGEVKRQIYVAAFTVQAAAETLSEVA

| SMILES | Ki (PSMA) [nM] | stability constant, KML [1] |
| --- | --- | --- |
| O=C(O)CCc1ccc(O)c(CN(CCN(CC(=O)O)Cc2cc(CCC(=O)NCCCCCC(=O)NCCCC[C@H](NC(=O)N[C@@H](CCC(=O)O)C(=O)O)C(=O)O)ccc2O)CC(=O)O)c1 [DKFZ-PSMA-11, Glu-urea-Lys-(Ahx)-HBED-CC] | 0.03 | – |
| O=C(O)CN1CCN(CC(=O)O)CCN(CC(=O)O)CCN(CC(=O)O)CC1 [DOTA] | – | 21.3 |
| O=C(O)CN1CCN(CC(=O)O)CCN(CC(=O)O)CC1 [NOTA, 1,4,7-triazacyclononane-1,4,7-triacetic acid] | – | 31.1 |
